Several values for one entry are separate records, joined by “and”; a condition that tells them apart may be missing. Equal values may be shown once. Read-outs that look alike come from different tables or passages of the source.
Tests used:
CB1 (rCB1) [1] = target: T1, CB1 (rCB1) (Rattus norvegicus, UniProt P20272); experiment: Radioligand competition binding, [3H]-CP-55,940, rat brain membranes; conditions: for pKi [95% CI]: rCB1
CB1 (rCB1) [2] = target: T1, CB1 (rCB1); experiment: Single-point radioligand displacement screen; assay type: binding; conditions: 10 µM, 1 µM or 300 nM by cell colour (not visible)
hCB1 = hCB1 (Homo sapiens, UniProt P21554); experiment: bioSensAll ebBRET signaling profiling, hCB1; assay type: cell-based; design: host or cells: HEK293SL cells, transient PEI transfection; conditions: for Gi1 hCB1 response: Gi1 biosensor; for Gi1 hCB1 / GoB hCB1: single replicate values, FigS6a; for EC50: read-out: EC50 [95% CI]; for Emax: normalized to CP-55,940
Sequence of hCB1 (P21554 whole entry): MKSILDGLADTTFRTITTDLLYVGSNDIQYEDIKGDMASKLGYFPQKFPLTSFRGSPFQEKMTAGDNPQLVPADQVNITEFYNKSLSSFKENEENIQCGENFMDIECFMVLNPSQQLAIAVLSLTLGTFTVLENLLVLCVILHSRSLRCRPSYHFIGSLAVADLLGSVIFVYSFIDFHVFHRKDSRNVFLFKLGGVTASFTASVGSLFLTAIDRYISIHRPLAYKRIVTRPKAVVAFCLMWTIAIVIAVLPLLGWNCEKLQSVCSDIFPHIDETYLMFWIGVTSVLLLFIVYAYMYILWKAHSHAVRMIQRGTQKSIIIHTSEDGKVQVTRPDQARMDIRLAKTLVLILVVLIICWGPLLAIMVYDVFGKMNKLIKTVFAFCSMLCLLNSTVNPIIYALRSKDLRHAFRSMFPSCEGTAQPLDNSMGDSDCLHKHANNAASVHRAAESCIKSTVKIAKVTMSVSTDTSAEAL

T1 sequence (P20272 whole entry): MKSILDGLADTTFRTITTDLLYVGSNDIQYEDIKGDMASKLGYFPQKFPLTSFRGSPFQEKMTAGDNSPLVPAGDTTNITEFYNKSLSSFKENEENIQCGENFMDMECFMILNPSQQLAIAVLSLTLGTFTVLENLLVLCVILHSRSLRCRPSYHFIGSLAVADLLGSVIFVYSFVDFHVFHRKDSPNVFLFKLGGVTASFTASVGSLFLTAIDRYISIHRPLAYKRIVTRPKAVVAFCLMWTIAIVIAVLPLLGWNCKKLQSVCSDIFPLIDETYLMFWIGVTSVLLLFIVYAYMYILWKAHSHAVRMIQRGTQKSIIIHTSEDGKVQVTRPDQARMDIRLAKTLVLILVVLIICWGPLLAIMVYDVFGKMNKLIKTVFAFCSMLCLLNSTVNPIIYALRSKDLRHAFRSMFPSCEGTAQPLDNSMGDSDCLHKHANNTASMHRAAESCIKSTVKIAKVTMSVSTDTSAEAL

COC(=O)C(NC(=O)c1cc(C)n(-c2cccc(C#N)c2)n1)c1ccsc1 (stereo not drawn) [‘31604]
pKi [95% CI] (CB1 (rCB1) [1]): 6.1 [6.0 – 6.2]
% 1H-CP-55,940 displacement (mean) from single point screen (CB1 (rCB1) [2]): 41.46%

Cc1cc(C(=O)NC(c2ccco2)c2ccco2)nn1-c1cccc(C(F)(F)F)c1 [‘1090]
pKi [95% CI] (CB1 (rCB1) [1]): 7.0 [6.7 – 7.4]
Ki (CB1 (rCB1) [1]; read-out: Ki [95% CI], rCB1, [3H]-CP-55,940): 90.8 nM
Gi1 hCB1 response (hCB1; Log [Compound] (M) -4.22186): 110.038
Gi1 hCB1 response (hCB1; Log [Compound] (M) -4.63927): 112.164
Gi1 hCB1 response (hCB1; Log [Compound] (M) -5.05788): 98.6907
Gi1 hCB1 response (hCB1; Log [Compound] (M) -5.47381): 79.5321
Gi1 hCB1 response (hCB1; Log [Compound] (M) -5.89285): 73.4668
Gi1 hCB1 response (hCB1; Log [Compound] (M) -6.31878): 61.1346
Gi1 hCB1 response (hCB1; Log [Compound] (M) -6.72585): 69.6395
Gi1 hCB1 response (hCB1; Log [Compound] (M) -7.14267): 48.8248
Gi1 hCB1 response (hCB1; Log [Compound] (M) -7.55284): 35.6645
Gi1 hCB1 response (hCB1; Log [Compound] (M) -8): 6.211
Gi1 hCB1 response (hCB1; Log [Compound] (M) -8.22186): 13.1264
Gi1 hCB1 response (hCB1; Log [Compound] (M) -8.39794): -25.5487
Gi1 hCB1 response (hCB1; Log [Compound] (M) -8.68787): -2.72
Gi1 hCB1 response (hCB1; Log [Compound] (M) -9.15521): -19.4162
Gi1 hCB1 response (hCB1; Log [Compound] (M) -9.61989): 5.584
Gi1 hCB1 response (hCB1; Log [Compound] (M) -10.0969): -17.9838
Gi1 hCB1 response (hCB1; Log [Compound] (M) -10.5529): 0.2123
Gi1 hCB1 response (hCB1; Log [Compound] (M) -11.0177): -1.668
Gi1 hCB1 response (hCB1; Log [Compound] (M) -11.4949): -1.668
Gi1 hCB1 response (hCB1; Log [Compound] (M) -11.9208): -2.429
Gi1 hCB1 response (hCB1; Log [Compound] (M) -12.3979): -6.524
Gi1 hCB1 response (hCB1; Log [Compound] (M) -12.8861): -4.734
Gi1 hCB1 response (hCB1; Log [Compound] (M) -13, individual replicate values): -8.293 and -12.478
Gi1 hCB1 (hCB1; Log [Compound] (M) -4.22186): 93.2514
GoB hCB1 (hCB1; Log [Compound] (M) -4.22186): 92.9275
Gi1 hCB1 (hCB1; Log [Compound] (M) -4.63927): 80.9336
GoB hCB1 (hCB1; Log [Compound] (M) -4.63927): 98.7901
Gi1 hCB1 (hCB1; Log [Compound] (M) -5.05788): 80.7948
GoB hCB1 (hCB1; Log [Compound] (M) -5.05788): 84.6911
Gi1 hCB1 (hCB1; Log [Compound] (M) -5.47381): 75.954
GoB hCB1 (hCB1; Log [Compound] (M) -5.47381): 85.1767
Gi1 hCB1 (hCB1; Log [Compound] (M) -5.89285): 77.9273
GoB hCB1 (hCB1; Log [Compound] (M) -5.89285): 88.8273
Gi1 hCB1 (hCB1; Log [Compound] (M) -6.31878): 77.4032
GoB hCB1 (hCB1; Log [Compound] (M) -6.31878): 81.2923
Gi1 hCB1 (hCB1; Log [Compound] (M) -6.72585): 72.1615
GoB hCB1 (hCB1; Log [Compound] (M) -6.72585): 72.8221
Gi1 hCB1 (hCB1; Log [Compound] (M) -7.14267): 54.5866
GoB hCB1 (hCB1; Log [Compound] (M) -7.14267): 60.3417
Gi1 hCB1 (hCB1; Log [Compound] (M) -7.55284): 37.9676
GoB hCB1 (hCB1; Log [Compound] (M) -7.55284): 40.506
Gi1 hCB1 (hCB1; Log [Compound] (M) -8): 20.7318
GoB hCB1 (hCB1; Log [Compound] (M) -8): 24.4829
Gi1 hCB1 (hCB1; Log [Compound] (M) -8.22186): 14.9814
GoB hCB1 (hCB1; Log [Compound] (M) -8.22186): 13.6209
Gi1 hCB1 (hCB1; Log [Compound] (M) -8.39794): 11.266
GoB hCB1 (hCB1; Log [Compound] (M) -8.39794): 8.064
Gi1 hCB1 (hCB1; Log [Compound] (M) -8.68787): 5.932
GoB hCB1 (hCB1; Log [Compound] (M) -8.68787): 3.406
Gi1 hCB1 (hCB1; Log [Compound] (M) -9.15521): 2.879
GoB hCB1 (hCB1; Log [Compound] (M) -9.15521): 0.583
Gi1 hCB1 (hCB1; Log [Compound] (M) -9.61989): 1.785
GoB hCB1 (hCB1; Log [Compound] (M) -9.61989): -2.51
Gi1 hCB1 (hCB1; Log [Compound] (M) -10.0969): 3.897
GoB hCB1 (hCB1; Log [Compound] (M) -10.0969): -0.2442
Gi1 hCB1 (hCB1; Log [Compound] (M) -10.5529): 2.155
GoB hCB1 (hCB1; Log [Compound] (M) -10.5529): -0.55
Gi1 hCB1 (hCB1; Log [Compound] (M) -11.0177): 2.633
GoB hCB1 (hCB1; Log [Compound] (M) -11.0177): 0.2233
Gi1 hCB1 (hCB1; Log [Compound] (M) -11.4949): 3.6965
GoB hCB1 (hCB1; Log [Compound] (M) -11.4949): 0.565
Gi1 hCB1 (hCB1; Log [Compound] (M) -11.9208): 1.261
GoB hCB1 (hCB1; Log [Compound] (M) -11.9208): 2.507
Gi1 hCB1 (hCB1; Log [Compound] (M) -12.3979): 3.666
GoB hCB1 (hCB1; Log [Compound] (M) -12.3979): 1.59
Gi1 hCB1 (hCB1; Log [Compound] (M) -12.8861): 2.17
GoB hCB1 (hCB1; Log [Compound] (M) -12.8861): 4.557
Gi1 hCB1 (hCB1; Log [Compound] (M) -13): 1.415 and 2.093
GoB hCB1 (hCB1; Log [Compound] (M) -13): 4.719 and 2.903
pEC50 [95% CI] (hCB1; hCB1 Gi1): 7.5 [7.3 – 7.5]
pEC50 [95% CI] (hCB1; hCB1 GoB): 7.4 [7.3 – 7.5]
pEC50 [95% CI] (hCB1; hCB1 Gz): 6.9 [6.5 – 7.4]
EC50 (hCB1; hCB1 Gi1): 35.6 nM
EC50 (hCB1; hCB1 GoB): 37.3 nM
Emax (hCB1; read-out: Emax [95% CI], hCB1 Gi1): 81%
Emax (hCB1; read-out: Emax [95% CI], hCB1 GoB): 90%
Emax (hCB1; read-out: Emax [95% CI], hCB1 Gz): 115%

From article PMC11882969 (Nature Communications, 2025)
